Like-named read-outs stand apart in the source and are kept apart here.
Experiments:
[1] = target: T1, c-Met (baculovirus expressed human c-Met kinase domain P948-S1343) (Homo sapiens, UniProt P08581); experiment: c-Met Luciferase-Coupled Chemiluminescent Kinase assay (LCCA); type: biochemical;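 also: kinase activity read as percent ATP left after reaction, by luciferase-luciferin chemiluminescence, with 1 µM ATP and 1 µM poly-EY substrate, 2 h at ambient temperature, 10-point dose-response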
T1 construct: human c-Met kinase domain P948-S1343; host or cells: baculovirus expression

[2] = target: T2, KDR (baculovirus expressed human KDR kinase domain D807-V1356) (Homo sapiens, UniProt P35968); experiment: biochemical;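 also: Luciferase-coupled chemiluminescent kinase assay, activity read as percent ATP left after 4 h reaction at ambient temperature, ATP near KM, 10-point dose-response in 384-well plates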
T2 construct: human KDR kinase domain D807-V1356; host or cells: baculovirus expression

[3] = Table 4, inhibition as IC50 class

T2 sequence (P35968 807-1356): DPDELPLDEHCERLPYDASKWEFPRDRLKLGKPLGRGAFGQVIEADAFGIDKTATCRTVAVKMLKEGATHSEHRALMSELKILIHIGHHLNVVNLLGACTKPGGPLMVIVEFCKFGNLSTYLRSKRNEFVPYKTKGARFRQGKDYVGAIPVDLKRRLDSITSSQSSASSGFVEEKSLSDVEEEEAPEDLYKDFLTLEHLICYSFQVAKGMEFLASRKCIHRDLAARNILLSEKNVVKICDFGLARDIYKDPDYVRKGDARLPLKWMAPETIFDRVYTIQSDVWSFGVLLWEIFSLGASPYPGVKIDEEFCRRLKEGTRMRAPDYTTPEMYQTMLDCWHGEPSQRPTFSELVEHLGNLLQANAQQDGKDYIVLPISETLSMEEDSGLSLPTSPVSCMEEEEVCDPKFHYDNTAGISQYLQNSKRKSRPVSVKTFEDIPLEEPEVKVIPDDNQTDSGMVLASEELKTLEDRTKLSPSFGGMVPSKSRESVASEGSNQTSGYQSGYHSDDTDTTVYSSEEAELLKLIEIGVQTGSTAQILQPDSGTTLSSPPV
T1 sequence (P08581 1011-1343 limits assumed): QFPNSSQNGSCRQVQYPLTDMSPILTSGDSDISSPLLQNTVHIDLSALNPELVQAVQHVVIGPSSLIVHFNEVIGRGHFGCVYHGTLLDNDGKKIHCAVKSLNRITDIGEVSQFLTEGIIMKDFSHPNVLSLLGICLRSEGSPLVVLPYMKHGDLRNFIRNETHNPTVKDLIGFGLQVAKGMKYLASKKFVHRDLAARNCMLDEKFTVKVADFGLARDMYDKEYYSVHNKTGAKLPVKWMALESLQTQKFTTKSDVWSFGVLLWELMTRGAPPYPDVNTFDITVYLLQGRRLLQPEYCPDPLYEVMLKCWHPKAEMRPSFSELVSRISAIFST

Row | Compound | IC50 [1] [nM] | IC50 [2] [nM] | IC50 [1, 3] [nM] | IC50 [2, 3] [nM]
1 | COc1cc2nccc(Oc3ccc(S(=O)(=O)N(C)CCCc4ccccc4)cc3F)c2cc1OC [Entry 25] | 500 to 5000 | – | – | –
2 | COc1cc2nccc(Oc3ccc(NC(=O)C(=O)N[C@H]4CCc5ccccc5C4)cc3F)c2cc1OC [Entry 62] | 500 to 5000 | – | – | –
3 | COc1cc2nccc(Oc3ccc(N(Cc4ccccc4)S(=O)(=O)NCc4ccccc4)cc3F)c2cc1OC [Entry 66] | 500 to 5000 | – | – | –
4 | COc1cc2nccc(Oc3ncc(NC(=O)C(=O)NCCc4ccccc4)cc3Cl)c2cc1OC [Entry 69] | 500 to 5000 | – | – | –
5 | COc1cc2nccc(Oc3ncc(NC(=O)CC(=O)Cc4ccccc4)cc3Cl)c2cc1OC [Entry 79] | 500 to 5000 | – | – | –
6 | COc1cc2nccc(Oc3cc4sc(NCCOc5ccccc5)nc4cc3F)c2cc1OC [Entry 81] | 50 to 500 | – | – | –
7 | COc1cc2nccc(Oc3cc4sc(N(C)CCc5ccccc5)nc4cc3F)c2cc1OC [Entry 83] | 500 to 5000 | – | – | –
8 | COc1cc2nccc(Oc3cc4sc(NCCc5cccc(C(F)(F)F)c5)nc4cc3F)c2cc1OC [Entry 86] | 500 to 5000 | – | – | –
9 | CCO/N=C(\C)C(=O)Nc1ccc(Oc2ccnc3cc(OC)c(OC)cc23)cc1 [Example 109, (2E)-N-(4-{[6,7-bis(methyloxy)quinolin-4-yl]oxy}phenyl)-2-[(ethyloxy)imino] propanamide] | 50 to 500 | < 50 | – | –
10 | COc1cc2nccc(Oc3ccc(NC(=O)/C(C)=N/OCc4ccccc4)cc3)c2cc1OC [Example 110, (2E)-N-(4-{[6,7-bis(methyloxy)quinolin-4-yl]oxy}phenyl)-2-{[(phenylmethyl)oxy]imino} propanamide] | 50 to 500 | 50 to 500 | – | –
11 | COc1cc2nccc(Oc3ccc(N4CC(Cc5ccccc5)NC4=O)cc3)c2cc1OC (stereo not drawn) [Example 113, 1-(4-{[6,7-bis(methyloxy)quinolin-4-yl]oxy}phenyl)-4-(phenylmethyl)imidazolidin-2-one] | 500 to 5000 | 500 to 5000 | – | –
12 | COc1cc2nccc(Oc3ccc(N4CCN(Cc5ccccc5)CC4=O)cc3)c2cc1OC [Example 116, 1-(4-{[6,7-bis(methyloxy)quinolin-4-yl]oxy}phenyl)-4-(phenylmethyl)piperazin-2-one] | 500 to 5000 | 500 to 5000 | – | –
13 | COc1cc2nccc(Oc3ccc(NC(=O)C(C)N(C)Cc4ccccc4)cc3)c2cc1OC (stereo not drawn) [Example 118, N1-(4-{[6,7-bis(methyloxy)quinolin-4-yl]oxy}phenyl)-N2-methyl-N2-(phenylmethyl) alaninamide] | 500 to 5000 | 500 to 5000 | – | –
14 | COc1cc2nccc(Oc3ccc(NC(=O)[C@H](CC(C)C)NCc4ccccc4)cc3)c2cc1OC [Example 119, N1-(4-{[6,7-bis(methyloxy)quinolin-4-yl]oxy}phenyl)-N2-(phenylmethyl)leucinamide] | 500 to 5000 | 500 to 5000 | – | –
15 | COc1cc2nccc(Oc3ccc(NC(=O)[C@@H](NCc4ccccc4)C(C)C)cc3)c2cc1OC [Example 121, N1-(4-{[6,7-bis(methyloxy)quinolin-4-yl]oxy}phenyl)-N2-(phenylmethyl)valinamide] | 500 to 5000 | 500 to 5000 | – | –
16 | COc1cc2nccc(Oc3ncc(NC(=O)CC(=O)Nc4ccc(F)cc4F)cc3Cl)c2cc1OC [Example 252, N-(6-{[6,7-bis(methyloxy)quinolin-4-yl]oxy}-5-chloropyridin-3-yl)-N′-(2,4-difluorophenyl)propanediamide] | – | – | < 50 | 500 to 5000
17 | COc1cc2nccc(Oc3ncc(NC(=O)CC(=O)N(C)c4ccc(F)cc4)cc3Cl)c2cc1OC [Example 253, N′-(6-{[6,7-bis(methyloxy)quinolin-4-yl]oxy}-5-chloropyridin-3-yl)-N-(4-fluorophenyl)-N-methylpropanediamide] | – | – | 50 to 500 | 500 to 5000
18 | COc1cc2c(Oc3ccc(NC(=O)C(=O)NCc4ccc(Cl)cc4)cc3F)ccnc2cc1OCC1CCNCC1 [Example 268, N-[(4-chlorophenyl)methyl]-N′-[3-fluoro-4-({6-(methyloxy)-7-[(piperidin-4-ylmethyl)oxy]quinolin-4-yl}oxy)phenyl]ethanediamide] | – | – | < 50 | < 50
19 | COc1cc2nccc(Oc3ncc(NC(=O)C4(C(=O)NCCc5ccccc5)CC4)cc3Cl)c2cc1OC [Example 302, N-(6-{[6,7-bis(methyloxy)quinolin-4-yl]oxy}-5-chloropyridin-3-yl)-N′-(2-phenylethyl)cyclopropane-1,1-dicarboxamide] | 500 to 5000 | 500 to 5000 | – | –
20 | COc1cc2nc(N)cc(Oc3ccc(NC(=O)C4(C(=O)Nc5ccc(F)cc5)CC4)cc3F)c2cc1OC [Example 340, N-(4-{[2-amino-6,7-bis(methyloxy)quinolin-4-yl]oxy}-3-fluorophenyl)-N′-(4-fluorophenyl)cyclopropane-1,1-dicarboxamide] | 500 to 5000 | 500 to 5000 | – | –
21 | COc1cc2c(Oc3ccc(NC(=O)[C@]4(C(=O)Nc5ccc(F)cc5)C[C@H]4C)cc3F)ncnc2cc1OCCCN1CCOCC1 [Example 347, (1R,2R)-N-[3-fluoro-4-({6-(methyloxy)-7-[(3-morpholin-4-ylpropyl)oxy]quinazolin-4-yl}oxy)phenyl]-N′-(4-fluorophenyl)-2-methylcyclopropane-1,1-dicarboxamide] | < 50 | < 50 | – | –

Next, values leading:

Row | IC50 [1] [nM] | IC50 [2] [nM] | IC50 [1, 3] [nM] | IC50 [2, 3] [nM] | Compound
22 | 50 to 500 | – | – | – | COc1cc2nccc(Oc3ccc(N4CCN(C(=O)Cc5ccccc5)C4=O)cc3F)c2cc1OC [Entry 6]
23 | 500 to 5000 | – | – | – | COc1cc2nccc(Oc3cc4sc(NC(=O)CCc5ccccc5)nc4cc3F)c2cc1OC [Entry 53]
24 | 500 to 5000 | – | – | – | COc1cc2nccc(Oc3cc4sc(NCCN5CCCC5)nc4cc3F)c2cc1OC [Entry 84]
25 | 500 to 5000 | – | – | – | COc1cc2nccc(Oc3cc4sc(NCc5cccc(C(F)(F)F)c5)nc4cc3F)c2cc1OC [Entry 85]
26 | 500 to 5000 | – | – | – | COc1cc2nccc(Oc3ncc(NC(=O)CC(=O)Nc4cccc(C(F)(F)F)c4)cc3Cl)c2cc1OC [Entry 87]
27 | 500 to 5000 | – | – | – | COc1cc2nccc(Oc3ncc(NC(=O)CN(Cc4ccccc4)C(=O)OC(C)(C)C)cc3Cl)c2cc1OC [Entry 92]
28 | 500 to 5000 | – | – | – | COc1cc2nccc(Oc3ncc(NC(=O)CNCc4ccccc4)cc3Cl)c2cc1OC [Entry 93]
29 | 500 to 5000 | – | – | – | COc1cc2nccc(Oc3ccc(NC(=O)CN(C)CCc4cccc(C(F)(F)F)c4)cc3F)c2cc1OC [Entry 100]
30 | 50 to 500 | – | – | – | COc1cc2nccc(Oc3ncc(NC(=O)CC(=O)Nc4ccc(Cl)cc4)cc3Cl)c2cc1OC [Entry 107]
31 | 50 to 500 | 50 to 500 | – | – | CO/N=C(\C)C(=O)Nc1ccc(Oc2ccnc3cc(OC)c(OC)cc23)cc1 [Example 108, (2E)-N-(4-{[6,7-bis(methyloxy)quinolin-4-yl]oxy}phenyl)-2-[(methyloxy)imino] propanamide]
32 | 500 to 5000 | 500 to 5000 | – | – | COc1cc2nccc(Oc3ccc(NC(=O)[C@@H]4CCCN4Cc4ccccc4)cc3)c2cc1OC [Example 111, N-(4-{[6,7-bis(methyloxy)quinolin-4-yl]oxy}phenyl)-1-(phenylmethyl)prolinamide]
33 | 500 to 5000 | 50 to 500 | – | – | COc1cc2nccc(Oc3ccc(NC4=NC(Cc5ccccc5)CO4)cc3)c2cc1OC (stereo not drawn) [Example 114, N-(4-{[6,7-bis(methyloxy)quinolin-4-yl]oxy}phenyl)-4-(phenylmethyl)-4,5-dihydro-1,3-oxazol-2-amine]
34 | 500 to 5000 | 500 to 5000 | – | – | COc1cc2nccc(Oc3ccc(N4CCN(Cc5ccccc5)CC4)cc3)c2cc1OC [Example 115, 6,7-bis(methyloxy)-4-({4-[4-(phenylmethyl)piperazin-1-yl]phenyl}oxy)quinoline]
35 | 500 to 5000 | 500 to 5000 | – | – | COc1cc2nccc(Oc3ccc(NC(=O)C(C)NCc4ccccc4)cc3)c2cc1OC (stereo not drawn) [Example 117, N1-(4-{[6,7-bis(methyloxy)quinolin-4-yl]oxy}phenyl)-N2-(phenylmethy)alaninamide]
36 | 500 to 5000 | 500 to 5000 | – | – | COc1cc2nccc(Oc3ccc(NC(=O)C(CC(C)C)N(C)Cc4ccccc4)cc3)c2cc1OC (stereo not drawn) [Example 120, N1-(4-{[6,7-bis(methyloxy)quinolin-4-yl]oxy}phenyl)-N2-methyl-N2-(phenylmethyl) leucinamide]
37 | – | – | < 50 | < 50 | COc1cc2c(Oc3ccc(NC(=O)C(=O)NCCc4ccccc4)cc3F)ccnc2cc1OCC1CNC1 [Example 249, N-(4-{[7-[(azetidin-3-ylmethyl)oxy]-6-(methyloxy)quinolin-4-yl]oxy}-3-fluorophenyl)-N′-(2-phenylethyl)ethanediamide]
38 | 50 to 500 | 500 to 5000 | – | – | COc1cc2nccc(Oc3ncc(NC(=O)CC(=O)Nc4cccc(F)c4)cc3Cl)c2cc1OC [Example 290, N-(6-{[6,7-bis(methyloxy)quinolin-4-yl]oxy}-5-chloropyridin-3-yl)-N′-(3-fluorophenyl)propanediamide]
39 | 500 to 5000 | 500 to 5000 | – | – | COc1cc2nc(SC)cc(Oc3ccc(NC(=O)C4(C(=O)Nc5ccc(F)cc5)CC4)cc3F)c2cc1OC [Example 338, N-(4-{[6,7-bis(methyloxy)-2-(methylthio)quinolin-4-yl]oxy}-3-fluorophenyl)-N′-(4-fluorophenyl)cyclopropane-1,1-dicarboxamide]
40 | 500 to 5000 | 500 to 5000 | – | – | COc1cc2nc(C)nc(Oc3ccc(NC(=O)C4(C(=O)Nc5ccc(F)cc5)CC4)cc3)c2cc1OC [Example 339, N-(4-fluorophenyl)-N′-(4-{[2-methyl-6,7-bis(methyloxy)quinazolin-4-yl]oxy}phenyl)cyclopropane-1,1-dicarboxamide]
41 | 500 to 5000 | 500 to 5000 | – | – | CNc1cc(Oc2ccc(NC(=O)C3(C(=O)Nc4ccc(F)cc4)CC3)cc2F)c2cc(OC)c(OC)cc2n1 [Example 341, N-(3-fluoro-4-{[2-(methylamino)-6,7-bis(methyloxy)quinolin-4-yl]oxy}phenyl)-N′-(4-fluorophenyl)cyclopropane-1,1-dicarboxamide]
42 | 500 to 5000 | – | – | – | N-{3-fluoro-4-[(7-(methyloxy)-6- {[(1-methylpiperidin-4- yl)methyl]oxy}quinazolin-4- yl)oxy]phenyl}-N′-(4- fluorophenyl)cyclopropane-1,1- dicarboxamide [Entry 31]

From patent US8476298B2 (Exelixis, Inc., priority 2003, dated 2013)
